Settings: Liquid, Transpiration method

C=CCc1ccc(OC)cc1 [1-allyl-4-methoxybenzene]
Settings | vapor or sublimation pressure [kPa]
279.1 K | 0.00378
284.1 K | 0.00583
288.9 K | 0.00912
293.8 K | 0.01395
298.8 K | 0.02153
303.7 K | 0.03168
308.8 K | 0.04509
313.7 K | 0.06571
318.2 K | 0.09199
323.2 K | 0.1278

C/C=C/c1ccc(O)c(OC)c1 [2-methoxy-4-(1E)-1-propen-1-yl-phenol]
Settings | vapor or sublimation pressure [kPa]
313.2 K | 0.00241
315.2 K | 0.00289
316.2 K | 0.00313
318.2 K | 0.00371
320.3 K | 0.00449
323.2 K | 0.00561
325.2 K | 0.00657
328.1 K | 0.00838
330.2 K | 0.00975
333.2 K | 0.01216
336.3 K | 0.01528
338.2 K | 0.01783
340.2 K | 0.02046
343.2 K | 0.02507
345.1 K | 0.02835
348.2 K | 0.03558
350.1 K | 0.04019
353.1 K | 0.05109
356.1 K | 0.06297
358.1 K | 0.07097

C/C=C/c1ccc(OC)cc1 [(E)-1-(4-methoxyphenyl)propene]
Settings | vapor or sublimation pressure [kPa]
296.5 K | 0.00567
300.4 K | 0.00774
304.4 K | 0.0112
308.4 K | 0.01507
312.3 K | 0.02056
313.2 K | 0.02178
316.4 K | 0.02753
318.5 K | 0.03262
321.4 K | 0.04178
323.4 K | 0.04533
326.4 K | 0.05539
328.4 K | 0.06574
331.5 K | 0.08089
333.4 K | 0.09361

C=CCc1ccc(O)c(OC)c1 [2-hydroxy-5-allylanisole]
Settings | vapor or sublimation pressure [kPa]
281.1 K | 0.0003
283.7 K | 0.00039
289 K | 0.00066
293.9 K | 0.00111
298.9 K | 0.00179
303.7 K | 0.00287
308.7 K | 0.00447
313.7 K | 0.00709
318.9 K | 0.01038
323.6 K | 0.01507
328.6 K | 0.02241
333.6 K | 0.03329
338.5 K | 0.04891
343.5 K | 0.06869

— the NIST ThermoML archive (doi:10.1016/j.fluid.2019.03.004)
